In BindingDB's records for doi:10.1021/jm1012193 (University of Bonn, 2012):

Target: T1, P2X purinoceptor 2 (Rattus norvegicus, UniProt P49653)
T1 sequence (P49653 whole entry): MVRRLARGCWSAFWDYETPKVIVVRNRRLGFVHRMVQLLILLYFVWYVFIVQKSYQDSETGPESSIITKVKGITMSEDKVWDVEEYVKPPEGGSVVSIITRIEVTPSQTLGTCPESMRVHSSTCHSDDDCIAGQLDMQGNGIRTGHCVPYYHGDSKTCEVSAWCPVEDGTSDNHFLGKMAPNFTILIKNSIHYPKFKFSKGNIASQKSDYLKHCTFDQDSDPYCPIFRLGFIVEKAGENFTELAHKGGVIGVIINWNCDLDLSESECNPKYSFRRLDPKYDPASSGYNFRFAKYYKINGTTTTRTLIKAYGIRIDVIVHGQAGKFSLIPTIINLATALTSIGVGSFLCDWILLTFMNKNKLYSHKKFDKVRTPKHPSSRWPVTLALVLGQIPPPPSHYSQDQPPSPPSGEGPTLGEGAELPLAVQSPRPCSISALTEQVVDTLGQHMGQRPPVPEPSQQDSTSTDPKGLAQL
Assay: Antagonist activity against rat […] receptor expressed in Xenopus laevis oocyte assessed as inhibition of alpha, beta-meATP-induced inward current by two-electrode voltage-clamp electrophysiology

Nc1ncnc2c1ncn2C1OC(COP(=O)(O)OP(=O)(O)OP(=O)(O)O)C2OC3(OC21)C([N+](=O)[O-])=CC([N+](=O)[O-])=CC3=[N+]([O-])[O-] (stereo not drawn) [sodium(3a'R,4'R,6'R,6a'R)-4'-(6-amino-9H-purin-9-yl)-2,6-dinitro-6'-((oxido(oxido(phosphonatooxy)phosphoryloxy)phosphoryloxy)methyl)-3a',4',6',6a'-tetrahydrospiro[cyclohexa[2,5]diene-1,2'-furo[3,4-d][1,3]dioxole]-4-ylideneazinate]
IC50: 4 µM
